Measurements reported in ChEMBL document CHEMBL1129697, “Synthesis and anticonvulsant evaluation of a series of (R)- and (S)-N-Cbz--aminoglutarimide and succinimide” (Bioorg Med Chem Lett, 1996).
Activity calls are given as the source filed them. No cut-off for these calls is given here.

What was measured:
Mus musculus [1] = species on record: Mus musculus; assay: Compound was tested for anticonvulsant activity in male mice using maximal electric shock seizure test.; assay type: functional
[2] = Compound was tested for anticonvulsant activity in male mice using maximal electric shock seizure test; Protective index = TD50/ED50; assay type: ADME; conditions: mouse, read-out: PI
[3] = Compound was tested for anticonvulsant activity in male mice by pentylenetetrazole (80 mg/kg, sc) induced seizure test.; Protective index = TD50/ED50; assay type: ADME, organism-based; conditions: mouse, in vivo, read-out: PI
Mus musculus [4] = assay: Compound was tested for anticonvulsant activity in male mice by pentylenetetrazole (80 mg/kg, sc) induced seizure test.; assay type: functional
[5] = Compound was tested for neurotoxic activity in male mice using rotarod test.; assay type: ADME; conditions: mouse, in vivo
[6] = Compound was tested for anticonvulsant activity in male mice using maximal electric shock seizure test.; Protective index = TD50/ED50; assay type: ADME; conditions: mouse, read-out: PI
Mus musculus [7] = species on record: Mus musculus; assay: Compound was tested for anticonvulsant activity in male mice using maximal electric shock seizure test; No effect; assay type: functional, organism-based
Mus musculus [8] = assay: Compound was tested for anticonvulsant activity in male mice by pentylenetetrazole (80 mg/kg, sc) induced seizure test.; No effect; assay type: functional, organism-based

Compound	ED50 (Mus musculus [1])	selectivity ratio [2]	selectivity ratio [3]	ED50 (Mus musculus [4])	TD50 [5]	selectivity ratio [6]	ED50 (Mus musculus [7])	ED50 (Mus musculus [8])
CN1C(=O)C[C@@H](NC(=O)OCc2ccccc2)C1=O	52.5 mg/kg	3.2	2	82.5 mg/kg	167 mg/kg			
O=C1CC[C@@H](NC(=O)OCc2ccccc2)C(=O)N1	56.3 mg/kg	2.2	2.6	46.9 mg/kg	122 mg/kg			
CN1C(=O)CC[C@@H](NC(=O)OCc2ccccc2)C1=O	47.5 mg/kg		4.9	24.4 mg/kg	120 mg/kg	2.5		
CCC1(C)CC(=O)NC1=O (stereo not drawn) [ETHOSUXIMIDE]			3.4	130 mg/kg			inactive	
O=C1C[C@H](NC(=O)OCc2ccccc2)C(=O)N1	103 mg/kg	1.6	2.1	78.1 mg/kg	161 mg/kg			
CN1C(=O)CC(C)(c2ccccc2)C1=O (stereo not drawn) [METHSUXIMIDE]	42.6 mg/kg	3.1	3.7	34.5 mg/kg	130 mg/kg			
O=C1CC[C@H](NC(=O)OCc2ccccc2)C(=O)N1	43.1 mg/kg	3	3.1	42.5 mg/kg	130 mg/kg			
O=C1C[C@@H](NC(=O)OCc2ccccc2)C(=O)N1	125 mg/kg	1.4	1.6	110 mg/kg	178 mg/kg			
CCCC(CCC)C(=O)O [VALPROIC ACID]	272 mg/kg			149 mg/kg				
O=C1NC(=O)C(c2ccccc2)(c2ccccc2)N1								inactive
CN1C(=O)CC[C@H](NC(=O)OCc2ccccc2)C1=O	36.1 mg/kg	1.7	5	12.5 mg/kg	62.5 mg/kg			
CCC1(c2ccccc2)C(=O)NC(=O)NC1=O [PHENOBARBITAL]	21.8 mg/kg			13.1 mg/kg				
CN1C(=O)OC(C)(C)C1=O [TRIMETHADIONE]	704 mg/kg	1.5	4.3	250 mg/kg	1070 mg/kg			
CN1C(=O)C[C@H](NC(=O)OCc2ccccc2)C1=O	61.2 mg/kg	1.9	1	113 mg/kg	118 mg/kg			
